According to PMC2747801 (European journal of pharmaceutical sciences : official …, 2009):
Where “and” joins values, the source holds several entries; their conditions need not be identical. Equal values may be shown once. Read-outs that look alike come from different tables or passages of the source.

What was measured:
[1] = for Pgp Mutant Kin / logPS(obs): male, pH 7.4; for logPS(obs) / brain uptake clearance: in vivo
[2] = male, CF-1, mouse, in vivo, 1 µM, pH 7.4
P-glycoprotein (Pgp) [3] = conditions: male, CF-1, mouse, not told, pH 7.4
[4] = cited from earlier work
P-glycoprotein (Pgp) [5] = experiment: Pgp effect: ratio of Pgp-deficient to wild-type uptake clearance; conditions: for Pgp Effect: ratio of Pgp-deficient Kin to wild-type Kin, CF-1 mice
[6] = PAMPA intrinsic permeability, cited from earlier work
[7] = cited from earlier work; remark: listed apart in the source
[8] = rodent and comment not printed ref Fernstermacher 1989; cited from earlier work
[9] = rat, cited from earlier work
[10] = rat, 5-50uM self-inhibition, training set ref Summerfield et al. 2007

| SMILES | logPo^PAMPA | Pgp Mutant Kin ([1]; CF-1, mouse, 1 µM) | logPS(obs) ([1]; CF-1, mouse, 1 µM) | Wild-Type Kin [2] | Pgp Effect (P-glycoprotein (Pgp) [5]) | also measured |
| --- | --- | --- | --- | --- | --- | --- |
| CN1CCN(C2=Nc3cc(Cl)ccc3Nc3ccccc32)CC1 [clozapine] | −0.39 | 90 mL/100g/min | −1.73 mL/g/s | 118 mL/100g/min | – | – |
| COc1ccc2c3c1O[C@H]1C[C@@H](O)C=C[C@@]31CCN(C)C2 [galanthamine] | −3.15 | – | – | – | – | logPS(obs) ([1]; mouse): −2.46 mL/g/s; Pgp Mutant Kin ([1]; mouse): 20 mL/100g/min; Pgp Effect (P-glycoprotein (Pgp) [3]): 1.1 |
| NCC1(CC(=O)O)CCCCC1 [gabapentin] | −3.36 | – | – | – | – | logPS(obs) ([1]; mouse): −2.34 mL/g/s; Pgp Mutant Kin ([1]; mouse): 26 mL/100g/min; logPS(obs) ([4]; rat, in vivo): −2.56 mL/g/s; Pgp Effect (P-glycoprotein (Pgp) [3]): 1.7 |
| O=C1CC2(CCCC2)CC(=O)N1CCCCN1CCN(c2ncccn2)CC1 [buspirone] | – | 341 mL/100g/min | – | 325 mL/100g/min | 1.0 | – |
| N[C@@H](Cc1ccc(F)cc1)C(=O)O [p-F-L-phenylalanine] | – | – | – | – | 1.1 | – |
| CN[C@H]1CC[C@@H](c2ccc(Cl)c(Cl)c2)c2ccccc21 [sertraline] | 2.10 | – | – | – | 1.0 | – |
| CC(C)(C)c1ccc(C(O)CCCN2CCC(C(O)(c3ccccc3)c3ccccc3)CC2)cc1 (stereo not drawn) [terfenadine] | – | 129 mL/100g/min | −1.52 mL/g/s | 126 mL/100g/min | – | logPo^PAMPA ([6]; ref Ruell et al. 2004, Avdeef et al. 2007): 2.63 |
| CN(C)CCC=C1c2ccccc2CCc2ccccc21 [amitriptyline] | – | 408 mL/100g/min | −0.66 mL/g/s | 335 mL/100g/min | 1.2 | brain uptake clearance ([1]; mouse): > 255 mL/100 g/min; logPS(obs) [4, 10]: −1.05 mL/g/s; logPo^PAMPA ([6]; ref Avdeef et al. 2006): 1.30 |
| N[C@H](Cc1ccc(F)cc1)C(=O)O [p-F-D-phenylalanine] | – | – | – | – | 1.1 | – |
| CC(C)(C)NC(=O)[C@@H]1C[C@@H]2CCCC[C@@H]2CN1C[C@@H](O)[C@H](Cc1ccccc1)NC(=O)[C@H](CC(N)=O)NC(=O)c1ccc2ccccc2n1 [saquinavir] | −3.69 | 11 mL/100g/min | −2.73 mL/g/s | 2.9 mL/100g/min | – | – |
| CCCN1C[C@H](C)N([C@H](c2ccc(C(=O)N(CC)CC)cc2)c2cccc(OC)c2)C[C@H]1C [SNC121] | −1.24 | – | – | – | – | Pgp effect ratios (P-glycoprotein (Pgp) [5]; compounds with down-step in rank classification for wild-type PS values (Fig. 3)): 8.6; logPS(obs) ([7]; mouse, in vivo): −1.44 mL/g/s |
| NC(=O)N1c2ccccc2C=Cc2ccccc21 [carbamazepine] | −3.73 | 184 mL/100g/min | −1.26 mL/g/s | 173 mL/100g/min | 1.1 | logPS(obs) [4, 10]: −1.75 mL/g/s |
| O=C1NC(=O)C(c2ccccc2)(c2ccccc2)N1 [phenytoin] | – | – | – | – | – | logPS(obs) ([4]; rat ref Liu et al. 2004): −2.20 mL/g/s; logPS(obs) [4, 10]: −2.07 mL/g/s; logPS(obs) [8]: −2.30 mL/g/s; logPo^PAMPA ([6]; ref Ruell et al. 2004): −4.32 |
| CN1CC(=O)NC1=N [creatinine] | −7.52 | – | – | – | – | logPS(obs) ([9]; i.v. ref Levin 1980): −4.55 mL/g/s and −4.70 mL/g/s |
| Cn1c(=O)c2[nH]cnc2n(C)c1=O [theophylline] | – | – | – | – | – | logPS(obs) ([7]; mouse ref Murakami et al. 2000): −3.26 mL/g/s; logPS(obs) ([4]; rat ref Liu et al. 2004): −2.90 mL/g/s; logPS(obs) ([4]; rat ref Murakami et al. 2000): −2.81 mL/g/s; logPo^PAMPA ([6]; ref Avdeef et al. 2006): −5.99 |
| CN(C)CCCN1c2ccccc2Sc2ccc(Cl)cc21 [chlorpromazine] | – | 295 mL/100g/min | −1.08 mL/g/s | 300 mL/100g/min | 1.0 | brain uptake clearance ([1]; mouse): > 255 mL/100 g/min; logPS(obs) [4, 10]: −1.20 mL/g/s; logPo^PAMPA ([6]; ref Avdeef et al. 2004, Ruell et al. 2004): 1.62 |
| CC[C@]1(O)C[C@H]2CN(CCc3c([nH]c4ccccc34)[C@@](C(=O)OC)(c3cc4c(cc3OC)N(C=O)[C@H]3[C@@](O)(C(=O)OC)[C@H](OC(C)=O)[C@]5(CC)C=CCN6CC[C@]43[C@@H]65)C2)C1 [vincristine] | −2.72 | – | – | – | – | logPS(obs) ([7]; mouse ref Murakami et al. 2000): −4.12 mL/g/s; logPS(obs) ([7]; mouse, mdr1a(−/−) ref Cisternino et al. 2001): −3.82 mL/g/s; logPS(obs) ([7]; mouse, mrp1(−/−), footnote x ref Cisternino et al. 2003): −4.25 mL/g/s; logPS(obs) ([4]; rat ref Greig et al. 1990): −3.91 mL/g/s; logPS(obs) ([4]; rat ref Murakami et al. 2000): −4.10 mL/g/s; logPS(obs) [8]: −4.00 mL/g/s |
| CC(C)(C)NC(=O)[C@@H]1CN(Cc2cccnc2)CCN1C[C@@H](O)C[C@@H](Cc1ccccc1)C(=O)N[C@H]1c2ccccc2C[C@H]1O [indinavir] | – | – | – | 0.52 mL/100g/min | – | – |
| COc1ccc(CCN2CCC(Nc3nc4ccccc4n3Cc3ccc(F)cc3)CC2)cc1 [astemizole] | – | 123 mL/100g/min | −1.55 mL/g/s | 112 mL/100g/min | – | Pgp Effect (P-glycoprotein (Pgp) [3]): 1.1; logPo^PAMPA ([6]; ref Bendels et al. 2006): 1.00 |
| CN/C(=N/CCSCc1nc[nH]c1C)NC#N [cimetidine] | – | – | – | – | – | logPS(obs) ([7]; mouse ref Murakami et al. 2000): −4.10 mL/g/s; logPS(obs) ([4]; rat ref Murakami et al. 2000): −4.05 mL/g/s; logPo^PAMPA ([6]; ref Avdeef et al. 2005): −6.20 |
| Cc1cn([C@H]2C[C@H](N=[N+]=[N-])[C@@H](CO)O2)c(=O)[nH]c1=O [zidovudine] | −5.79 | – | – | – | – | logPS(obs) ([9]; i.v. ref Wu et al. 1998): −3.99 mL/g/s |
| CCCN(CCC)S(=O)(=O)c1ccc(C(=O)O)cc1 [probenecid] | – | 0.098 mL/100g/min | −4.79 mL/g/s | 0.069 mL/100g/min | 1.4 | logPo^PAMPA ([6]; ref Ruell et al. 2004): −1.83 |
| COc1ccc(Cl)cc1C(=O)NCCc1ccc(S(=O)(=O)NC(=O)NC2CCCCC2)cc1 [glibenclamide] | – | – | – | – | – | logPS(obs) ([7]; mouse ref Murakami et al. 2000): −3.27 mL/g/s; logPS(obs) ([4]; rat ref Murakami et al. 2000): −2.77 mL/g/s; logPo^PAMPA ([6]; ref Bendels et al. 2006): −2.54 |
